Values after ≈ are worked out from the molar mass of the structure shown. Active and inactive are the calls of the source. No cut-off for these calls is given here.
How the values were obtained:
Staphylococcus aureus [1] = assay: Antibacterial activity against methicillin-resistant Staphylococcus aureus after 18 hr by NCCLS dilution tube method; type: functional
Staphylococcus aureus [2] = assay: Antibacterial activity against methicillin-susceptible Staphylococcus aureus ATCC 1112 after 18 hr by NCCLS dilution tube method; type: functional; conditions: for MIC: ATCC 1112, 18 h
Klebsiella pneumoniae [3] = assay: Antibacterial activity against Klebsiella pneumoniae at > 1000 uM after 18 hr by NCCLS dilution tube method; type: functional, organism-based
Pseudomonas aeruginosa [4] = assay: Antibacterial activity against Pseudomonas aeruginosa at > 1000 uM after 18 hr by NCCLS dilution tube method; type: functional, organism-based
Streptococcus pyogenes = assay: Antibacterial activity against Streptococcus pyogenes after 18 hr by NCCLS dilution tube method; type: functional
Streptococcus pneumoniae = assay: Antibacterial activity against Streptococcus pneumoniae after 18 hr by NCCLS dilution tube method; type: functional
Klebsiella pneumoniae [5] = assay: Antibacterial activity against Klebsiella pneumoniae after 18 hr by NCCLS dilution tube method; type: functional
Pseudomonas aeruginosa [6] = assay: Antibacterial activity against Pseudomonas aeruginosa after 18 hr by NCCLS dilution tube method; type: functional

Compound | MIC (Staphylococcus aureus [1]) [µM] | MIC (Staphylococcus aureus [2]) [µM] | also measured
N#Cc1cnn(-c2ccc([N+](=O)[O-])cc2[N+](=O)[O-])c1NC(=O)C1CCCCC1 | 391 (≈ 150 µg/mL) | 195 (≈ 75.1 µg/mL) | Activity (Klebsiella pneumoniae [3]): inactive; Activity (Pseudomonas aeruginosa [4]): inactive
CC1=C(C(=O)O)N2C(=O)[C@@H](NC(=O)[C@H](N)c3ccccc3)[C@H]2SC1 [CEPHALEXIN ANHYDROUS] | 72 (≈ 25 µg/mL) | 4.6 (≈ 1.6 µg/mL) | 
Cc1onc(-c2ccccc2Cl)c1C(=O)N[C@@H]1C(=O)N2[C@@H]1SC(C)(C)[C@@H]2C(=O)O [CLOXACILLIN] | 94 (≈ 41 µg/mL) | 13.7 (≈ 5.97 µg/mL) | 
CC(=O)Nc1c(C#N)cnn1-c1ccc([N+](=O)[O-])cc1[N+](=O)[O-] | 632 (≈ 200 µg/mL) | 316 (≈ 99.9 µg/mL) | MIC (Streptococcus pyogenes): 100 µg/mL (≈ 316 µM); Activity (Klebsiella pneumoniae [3]): inactive; MIC (Streptococcus pneumoniae): 100 µg/mL (≈ 316 µM); Activity (Pseudomonas aeruginosa [4]): inactive
N#Cc1cnn(-c2ccc([N+](=O)[O-])cc2[N+](=O)[O-])c1NC(=O)c1ccc(Br)cc1 | 27.4 (≈ 12.5 µg/mL) | 27.4 (≈ 12.5 µg/mL) | 
N#Cc1cnn(-c2ccc([N+](=O)[O-])cc2[N+](=O)[O-])c1N |  |  | Activity (Streptococcus pyogenes): inactive; Activity (Staphylococcus aureus [2]): inactive; Activity (Streptococcus pneumoniae): inactive
N#Cc1cnn(-c2ccc([N+](=O)[O-])cc2[N+](=O)[O-])c1NC(=O)c1ccc(Cl)cc1 | 60.5 (≈ 25 µg/mL) | 15.3 (≈ 6.32 µg/mL) | 
N#Cc1cnn(-c2ccc([N+](=O)[O-])cc2[N+](=O)[O-])c1NC(=O)C12CC3CC(CC(C3)C1)C2 | 57.4 (≈ 25.1 µg/mL) | 57.4 (≈ 25.1 µg/mL) | MIC (Klebsiella pneumoniae [5]): > 300 µM; MIC (Pseudomonas aeruginosa [6]): > 300 µM
Cc1ccc(C(=O)Nc2c(C#N)cnn2-c2ccc([N+](=O)[O-])cc2[N+](=O)[O-])cc1 | 63.8 (≈ 25 µg/mL) | 60.5 (≈ 23.7 µg/mL) | 
N#Cc1cnn(-c2ccc([N+](=O)[O-])cc2[N+](=O)[O-])c1NC(=O)c1ccccc1 | 264 (≈ 100 µg/mL) | 132 (≈ 50 µg/mL) | Activity (Klebsiella pneumoniae [3]): inactive; Activity (Pseudomonas aeruginosa [4]): inactive
COc1ccc(C(=O)Nc2c(C#N)cnn2-c2ccc([N+](=O)[O-])cc2[N+](=O)[O-])cc1 | 15.3 (≈ 6.25 µg/mL) | 31.9 (≈ 13 µg/mL) | 
CN(C)c1ccc(C(=O)Nc2c(C#N)cnn2-c2ccc([N+](=O)[O-])cc2[N+](=O)[O-])cc1 | 3.8 (≈ 1.6 µg/mL) | 3.8 (≈ 1.6 µg/mL) | 
N#Cc1cnn(-c2ccc([N+](=O)[O-])cc2[N+](=O)[O-])c1NC(=O)c1ccc(F)cc1 | 252 (≈ 100 µg/mL) | 126 (≈ 50.1 µg/mL) | 

Source: ChEMBL document CHEMBL3046829, “Design, synthesis, and structureactivity relationship study of 5-amido-1-(2,4-dinitrophenyl)-1H-4-pyrazolecarbonitrils as DD-carboxypeptidase/penicillin-binding protein inhibitors with Gram-positive antibacterial activity” (2010)
